Results published in patent US5070078A, “Antiviral compounds” (Burroughs Wellcome Co., priority 1987, dated 1991).

Tests used:
[1] = tested on: adenovirus of serotype 8; assay: anti-adenoviral activity, plaque assay in human epithelial cell line NCTC 2544 (EP); format: cell-based, adenovirus type 8
Experimental: The anti-adenoviral activity of Compound No. 1 referred to above was tested as follows:
(§1) Cells of human epithelial cell line NCTC 2544 (EP) were serially passaged from 75 cm^2 tissue culture flasks (Corning) at a spilt ratio of 1/20 every 7 days. The growth medium was Eagles BHK medium supplemented with 10% foetal bovine serum and contained 2.5% of 4.4% sodium bicarbonate solution together with 1% of penicillin (5000 IU ml^-1) and streptomycin (600 μg ml^-1) (Flow).
A stock of adenovirus of type 8 was prepared in 25 cm^2 tissue culture flasks. Flasks were seeded with 2×10^6 EP cells in growth medium and incubated overnight at 37° C. The medium was decanted and 1.0 ml of stock virus suspension was added to the flask. After 1.0 hr adsorption 10 ml of maintenance medium (as above but with 2% serum) was added to the flask.
The flask were incubated at 37° C. After 72 hrs the classical'bunch of grapes' cytopathic effect was visible. The flasks were then frozen and thawed 3 times to liberate the virus and stored at -70° C. Viral titres were usually of the order of 4×10^8 pfu ml^-1.
The plaque assay was performed in 50 mm diameter plastic tissue culture dishes which were initially seeded with 2×10^6 EP cells in growth medium and incubated overnight in 5% CO2 at 37° C. […]

[2] = Cytotoxicity Determination, trypan blue exclusion method; format: cell-based; conditions: human, NCTC 2544 cells, read-out: 50% cell culture inhibitory concentration
Experimental: as §1
Cytotoxicity was determined by means of the trypan blue exclusion method. NCTC 2544 cells were prepared in growth medium and aliquots added to […] tissue culture flasks at approximately 1×10^5 cells/ml. At 24 hours the flasks were divided and replenished with growth medium. One half of the flasks received growth medium containing 10 fold dilutions of compound thus exposing the cells to 1, 10, and 100 μM concentrations. At 24, 48, and 72 hours representative flasks were removed from the incubator and the monolayers washed to remove debris. The cells were resuspended in growth medium and aliquots mixed with an equal volume of trypan blue. Stained and unstained cells were counted in a haemocytometer. Cell counts were adjusted to cells/ml. An estimate of the growth and viability of treated and untreated cells was then made.

[3] = tested on: adenovirus serotype 5; assay: anti-adenovirus activity against serotype 5 (statement only); format: cell-based

- IC50 ([1]; unidentified adenovirus, NCTC-2544, adenovirus serotype 8, EP cells, plaque assay): 0.005 µM
Structure (SMILES): Cc1cn([C@H]2C[C@H](F)[C@@H](CO)O2)c(=O)[nH]c1=O [Compound No. 1, 2',3'-dideoxy-3'-fluorothymidine]
- anti-adenovirus activity (in words) ([1]; serotype 8): particularly high anti-adenovirus activity
- CC50 at 72 h [2]: 38 µM
- anti-adenovirus activity (in words) [3]: particularly high anti-adenovirus activity
